Read-outs that look alike come from different tables or passages of the source.

From patent US10518266B2, “Microtiter plate and uses thereof” (ONEXIO BIOSYSTEMS LLC, priority 2016, dated 2019) come the findings set out here.

What all share (type): cell-based
In data set [1] the test system is HEK293 cells.
The subject of data set [2] is estrogen receptor driven luciferase reporter protein stably expressed in the MVLN cell line. Briefly: MVLN estrogen receptor driven luciferase reporter assay, co-culture with HepG2 cells in the device.
The subject of data set [3] is ER-transactivation in MVLNs. The data set is described as follows: ER-transactivation in MVLN luciferase cells co-cultured with HepaRG cells in the device. Particulars: MVLN co-cultured with HepaRG vs mono-culture; FIG. 18C.
Data set [4] concerns HEK293 cells. The data set is described as follows: Conferred cytotoxicity assay, HEK293 cells in co-culture with primary human hepatocytes in the device. Particulars: primary human hepatocytes (PHH) as bioactivator vs HEK293 mono-culture; FIG. 18a,b.

Take `COc1cc2c(c3oc(=O)c4c(c13)CCC4=O)[C@@H]1C=CO[C@@H]1O2` [aflatoxin]: the “conferred toxicity to HEK293 cells” value in data set [1] is on record as “conferred toxicity”. Turning to `C[C@]12CC[C@H]3[C@@H](CCC4=CC(=O)CC[C@@]43C)[C@@H]1CC[C@@H]2O` [testosterone], the MVLN reporter activity result in data set [2] is on record as “activates MVLN reporter activity”.

`Oc1ccc(Cc2ccccc2)cc1` [4-benzylphenol]: the “ER-transactivation in MVLNs (metabolic competence of the device)” value in data set [3] was “shows competence”. Consider `COc1cccc2c1C(=O)c1c(O)c3c(c(O)c1C2=O)C[C@@](O)(C(=O)CO)C[C@@H]3O[C@H]1C[C@H](N)[C@H](O)[C@H](C)O1` [doxorubicin], for which the “conferred toxicity to HEK293 cells” value in data set [4] is “conferred toxicity”.
